Assay [1] has as its system C. difficile. Conditions: C. difficile MMX 4381 (ATCC 700057); cited from earlier work.
Assay [2] has as its system C. difficile. Nature of the assay: Agar dilution MIC, anaerobes (Example 5). The assay is classed as cell-based, Clostridium difficile. Conditions: Clostridioides difficile, read-out: MIC. (In general: In agar dilution, organisms are placed on agar that contains the substance at set levels.)
Assay [3] concerns B. fragilis. Conditions: B. fragilis MMX 123 (ATCC 25285); cited from earlier work.
The subject of assay [4] is B. fragilis. Briefly: Agar dilution MIC, anaerobes (Example 5). The assay is classed as cell-based. Conditions: Bacteroides fragilis, ATCC25285; B. fragilis MMX 123 (ATCC 25285); QC; read-out: MIC.
The subject of another assay is N. gonorrhoeae. Particulars: N. gonorrhoeae MMX 683 (ATCC 49226); cited from earlier work.
The test system of a further assay is S. aureus ATCC 29213. Particulars: per CLSI M100-S24 or provided by Microbion; cited from earlier work.
The test system of assay [5] is relevant ATCC QC organisms. Conditions: CLSI established QC range, cited from earlier work.
The subject of assay [6] is baseline pathogens at the surgical site. Nature of the assay: Phase 2a study: microbiological success / post-baseline microbiology at the index site. The class given is in vivo, human. Particulars: Subject 001-002; Subject 006-003, S. aureus (MRSA); 0.5 μg/cm^2 dose group. How it is done:
Microbiology was assessed on Day 1 and at the time of any subsequent surgical procedure at the index site. Samples were collected from the infected bone site or involved tissue adjacent to any implant(s), swabs of the deep infection site, and the superficial tissue/wound closure/sinus tract site. Isolation and identification of aerobic and anerobic bacteria was conducted at a central microbiology laboratory (IHMA, Schaumburg, IL) and susceptibility of the isolates to MBN-101 (BisEDT) and comparator agents was performed per Clinical and Laboratory Standards Institute (CLSI). Parallel sets of samples were analyzed by the local clinical site laboratory to guide patient antibiotic treatment.
Clinical activity of locally administered MBN-101 was assessed by the following: • Proportion of treatment failures. […] Pain intensity at the surgical site was assessed by VAS (0 to 10 scale). • Findings of microbiology evaluations at the surgical site. Microbiologic success was assessed by clearance of infection. • Findings of radiographic evaluations at the surgical site. Radiographic success was assessed by healing on radiologic examination. • Change in serologic markers CRP and ESR at each post-baseline time point. […]

For a further assay, the system named is E. coli ATCC 25922. Particulars: per CLSI M100-S24 or provided by Microbion; cited from earlier work.
[7] abbreviates: ATCC700057, C. difficile MMX 4381 (ATCC 700057), QC, CCI.
[8] abbreviates: C. difficile MMX 8272, ribotype 255, CCI.
Where [9] appears, read: C. difficile MMX 8279, ribotype 005, CCR.
Setting [10] is: C. difficile MMX 8281, ribotype 010, CCR.
Setting [11] is: NCTC13307, C. difficile MMX 5681 (NCTC 13307), ribotype 012, CCR.
Where [12] appears, read: NCTC13336, C. difficile MMX 5680 (NCTC 13336), ribotype 027, CCI METR.

≈ marks a conversion by molar mass, not a printed value. Read-outs that look alike come from different tables or passages of the source. Where only a bound is given, the exact number is not on record here.

As a reminder, the MIC is the lowest concentration found to suppress growth. Consider `Cc1ncc([N+](=O)[O-])n1CCO` [Metronidazole], for which the figures for the “CLSI QC range of MIC” value with C. difficile [1] and in the assay on B. fragilis [3] were “(0.12-0.5) μg/mL” and “(0.25-1) μg/mL”, respectively. Moreover, the MIC with C. difficile [2] (setting [7]) is 0.5 µg/mL (≈ 2.92 µM); in the assay with C. difficile [2] (setting [8]), 0.5 µg/mL (≈ 2.92 µM); in the assay on C. difficile [2] (setting [9]), 0.5 µg/mL (≈ 2.92 µM); in the assay with C. difficile [2] (setting [10]), 8 µg/mL (≈ 46.7 µM); with C. difficile [2] (setting [11]) it was 0.5 µg/mL (≈ 2.92 µM); in the assay on C. difficile [2] (setting [12]), more than 64 µg/mL. Moreover, the MIC in the assay on B. fragilis [4] came out at 0.5 µg/mL (≈ 2.92 µM).
As for `CCc1c(Cl)c(O)c(Cl)c(O)c1C(=O)O[C@H]1[C@H](O)[C@H](OC)[C@H](OC/C2=C\C=C\C[C@H](O)/C(C)=C/[C@H](CC)[C@@H](O[C@@H]3OC(C)(C)[C@@H](OC(=O)C(C)C)[C@H](O)[C@@H]3O)/C(C)=C/C(C)=C/C[C@@H]([C@@H](C)O)OC2=O)O[C@@H]1C` [Fidaxomicin], the “CLSI QC range of MIC” value with C. difficile [1] was “(0.06-0.25) μg/mL”. For the same compound, the minimum inhibitory concentration (MIC) in the assay with C. difficile [2] (setting [7]) was 0.25 µg/mL (≈ 0.236 µM); in the assay on C. difficile [2] (setting [8]) it was 0.5 µg/mL (≈ 0.473 µM); in the assay on C. difficile [2] (setting [9]), 0.5 µg/mL (≈ 0.473 µM); in the assay with C. difficile [2] (setting [10]), 0.5 µg/mL (≈ 0.473 µM); with C. difficile [2] (setting [11]), 0.5 µg/mL (≈ 0.473 µM); in the assay with C. difficile [2] (setting [12]) it was 4 µg/mL (≈ 3.78 µM). Besides, the MIC with B. fragilis [4] is more than 64 µg/mL.
In the case of `CO/N=C(\C(=O)N[C@@H]1C(=O)N2C(C(=O)O)=C(CSc3nc(=O)c(=O)[nH]n3C)CS[C@H]12)c1csc(N)n1` [Ceftriaxone], in the assay with N. gonorrhoeae, the “CLSI QC range of MIC” value was “(0.004-0.015) μg/mL”.
`C1C[S][Bi]([S]CC[S][Bi]2[S]CC[S]2)[S]1` [BisEDT, bismuth-1,2-ethanedithiol]: the “MIC, acceptable range” value with S. aureus ATCC 29213 was 0.13 to 1 µg/mL; in the assay on E. coli ATCC 25922 it was 0.5 to 2 µg/mL. For the same compound, the “MIC, expected results” value was 0.25 to 0.5 µg/mL in the assay on S. aureus ATCC 29213 and 1 µg/mL in the assay with E. coli ATCC 25922. The entries for the “MIC QC range (in parentheses)” value in assay [5] (E. coli ATCC 25922), in assay [5] (P. aeruginosa ATCC 27853) and in [5] (S. aureus ATCC 29213) were “(0.5-4)1 μg/mL”, “(0.5-4) μg/mL” and “(0.12-1) μg/mL”, respectively. For the same compound, in [6], the “Change of BisEDT MIC, baseline vs post-baseline isolates from the same source” value is listed as “unchanged”.

Source of the values: patent US20240285571A1, “METHODS OF TREATING BONE INFECTIONS” (MICROBION CORPORATION, priority 2020, published 2024).
